Experiments:
[1] = tested on: UBC12 protein NEDDylation; test: Bead method: NEDD8 level on UBC12 beads with HL60 cell extracts; format: cell-based; settings: HL60 cells, 1 μM, 6 h
Method: HL60 cells were first treated with 1 μM of MLN4924, DMSO, or only with the culture medium for 6 h. Beads supporting UBC12, (NEDDylation E2 enzyme, which was previously reported to be modified by NEDD8) were contacted with said cell extracts, and NEDD8 level was assessed.
(§1) Cells grown at a 5-8.10^5/mL density were spun down (300 g) at 4° C. for 5 min and washed once with PBS. After pellet resuspension in 1 mL of PBS, they were centrifuged again (16,000 g) at 4° C. for 5 min. Pellets were resuspended and incubated at 4° C. for 30 min in a hypotonic buffer (20 mM HEPES pH 7.5, 1.5 mM MgCl2, 5 mM KCl, 1 mM DTT and 1 mg/L of aprotinine, leupeptin and pepstatin) in a volume of 25 μL per 2.10^6 cells. Cell lysis was achieved through 4 freezing/thawing cycles using liquid nitrogen and DNA was sheared owing to 10 passages through a 20-1/2 G needle. Extracts were finally centrifuged twice (16000 g) at 4° C. for 20 min and supernatants were aliquoted, flash-frozen and kept at −80° C. until use. […]
(§2) SUMO-1-, SUMO-2-, NEDD8 and Ubiquitin vinyl sulfones (0.5 μM each) were added to cellular extracts (10 μL), which were incubated at 4° C. for 15 min. […] They were then resuspended in 200 μL PBS and flow-cytometry-analysed using the LSR Fortessa device from BD Biosciences. Results were analysed using the FlowJow software.

[2] = tested on: ubiquitination activity (TMEM92, BEAN1, WBP2); test: Bead method: ubiquitination activity on TMEM92, BEAN1 or WBP2 beads with HL60 cell extracts; format: cell-based; settings: HL60 cells, 6 h
Method: Cells extracts were prepared and contacted with beads coated with either TMEM92, BEAN1 or WBP2 proteins.
(§3) Cells grown at a 5-8.10^5/mL density were spun down (300 g) at 4° C. for 5 min and washed once with PBS. After pellet resuspension in 1 mL of PBS, they were centrifuged again (16,000 g) at 4° C. for 5 min. Pellets were resuspended and incubated at 4° C. for 30 min in a hypotonic buffer (20 mM HEPES pH 7.5, 1.5 mM MgCl2, 5 mM KCl, 1 mM DTT and 1 mg/L of aprotinine, leupeptin and pepstatin) in a volume of 25 μL per 2.10^6 cells. Cell lysis was achieved through 4 freezing/thawing cycles using liquid nitrogen and DNA was sheared owing to 10 passages through a 20-1/2 G needle. Extracts were finally centrifuged twice (16000 g) at 4° C. for 20 min and supernatants were aliquoted, flash-frozen and kept at −80° C. until use.
2.10^5 magnetic MagPlex XMap beads (low concentration) from Luminex were transferred to a low binding microtube (Eppendorf) and washed using 500 mM NaCl. They were then resuspended in 50 μL of 50 mM MES pH 6.1 and incubated in the presence of 5 mg/mL 1-ethyl-3-(3-dimethylaminopropyl) carbodiimide hydrochloride (EDC, Pierce) and 5 mg/mL Sulfo-NHS (Pierce) at room temperature for 20 min. Beads were then washed in PBS containing 500 mM NaCl and incubated with 7 μg of recombinant protein to be coupled in 100 μL PBS at room temperature for 2 hrs. They were then washed twice with PBS containing 0.1% BSA, 0.02% Tween 20, 0.05% sodium azide and 500 mM NaCland stored at 4° C. in PBS containing 0.1% BSA, 0.02% Tween-20, 0.05% sodium azide.
as §2, with “min. Control extracts were also incubated with 50 mM NEM.” for “min.”

[3] = tested on: NEDDylation of OTUD6B; test: Bead method: NEDD8 addition on OTUD6B beads with HL60 cell extracts; format: cell-based; settings: HL60 cells, 0-500 nM, 6 h
Method: FIG. 8 represents graphs evaluating Ubiquitin addition on beads coated with TMEM92 (1), BEAN1 (2), WBP2 (3) proteins, SUMO1 addition on beads coated with ZMYM5 (4) or NEDD8 addition on beads coated with OTUD6B (5). […] As control, cell extracts treated N-ethylmaleimide (NEM) are used (A).
ZMYM5 was used as a marker of SUMOylation, OTUD6B as a marker of NEDDylation, and TMEM92, BEAN and WBP2 as a marker of ubiquitinylation.
as §1, with “needle.” for “needle. Extracts were finally centrifuged twice (16000 g) at 4° C. for 20 min and supernatants were aliquoted, flash-frozen and kept at −80° C. until use.”
as §2

[4] = tested on: SUMOylation activity on ZMYM5 protein; test: Bead method: SUMOylation activity on ZMYM5 with HL60 cell extracts; format: cell-based; settings: HL60 cells, 0-500 nM, 6 h; ZMYM5 beads
Method: ZMYM5 was used as a marker of SUMOylation, OTUD6B as a marker of NEDDylation, and TMEM92, BEAN and WBP2 as a marker of ubiquitinylation. […]
as §3
2.10^5 magnetic MagPlex XMap beads (low concentration) from Luminex were transferred to a low binding microtube (Eppendorf) and washed using 500 mM NaCl. […]
as §2

[5] = tested on: SUMOylation activity; settings: read-out: in vitro IC50 (SUMOylation); cited from earlier work
[6] = tested on: NEDDylation (OTUD6B protein); settings: read-out: in vitro IC50 (NEDDylation) on OTUD6B protein; cited from earlier work

In the case of NS(=O)(=O)OC[C@@H]1C[C@@H](n2ccc3c(N[C@H]4CCc5ccccc54)ncnc32)CC1O (some centres unmarked) [MLN4924], the “UBC12 protein NEDDylation” value [1] is reported as “decrease”.

For NS(=O)(=O)OC[C@H]1C[C@@H](Nc2ccnc3cc(-c4cccc(SC(F)(F)F)c4)nn23)[C@H](O)[C@@H]1O [MLN7243], the ubiquitination activity inhibited ([2]; 10 nM or more) was “more than 50%”, the TMEM92 ubiquitination inhibition ([2]; 500 nM, TMEM92 beads) was “maximal” and the “WBP2 and BEAN1 ubiquitination remaining” value ([2]; 500 nM, WBP2 and BEAN1 beads) was “residual levels”. For the same compound, the “effect on NEDDylation (OTUD6B beads)” value [3] was “a decrease slightly different”, the “effect on SUMOylation activity” value [4] was “affects SUMOylation activity, but with large amounts of inhibitor” and the IC50 [5] was 850 nM. For the same compound, the IC50 [6] was 28 nM.
